Test results: patent EP2776398B1, “SUBSTITUTED PYRAZOLYL-BASED UREA DERIVATIVES AS VANILLOID RECEPTOR LIGANDS” (Medifron DBT Inc., priority 2011, dated 2013)

These molecules were tested against T1, vanilloid receptor 1 (VR1/TRPV1 receptor) (Homo sapiens, UniProt Q8NER1) (assay: Functional testing on vanilloid receptor 1: FLIPR Ca2+ influx assay against capsaicin (Cap) in transfected CHO K1 cells (pharmacological method II)). Conditions: @ 5µM; human VR1 in CHO K1 cells; capsaicin; relative to maximum inhibition with 10 µM capsazepine; read-out: inhibition (as a percentage), printed in column (f) Ki (human being) [nM] Cap.
T1 construct: expressed in transfected cells; host or cells: CHO K1 cells (ECACC), stably transfected
Assay type: cell-based
Parameters: key to (f) Ki (human being) [nM] Cap: agonist classification: AG = agonist
From the text: […]
For Ki in this document: 100 nM capsaicin.

T1 sequence (Q8NER1 whole entry): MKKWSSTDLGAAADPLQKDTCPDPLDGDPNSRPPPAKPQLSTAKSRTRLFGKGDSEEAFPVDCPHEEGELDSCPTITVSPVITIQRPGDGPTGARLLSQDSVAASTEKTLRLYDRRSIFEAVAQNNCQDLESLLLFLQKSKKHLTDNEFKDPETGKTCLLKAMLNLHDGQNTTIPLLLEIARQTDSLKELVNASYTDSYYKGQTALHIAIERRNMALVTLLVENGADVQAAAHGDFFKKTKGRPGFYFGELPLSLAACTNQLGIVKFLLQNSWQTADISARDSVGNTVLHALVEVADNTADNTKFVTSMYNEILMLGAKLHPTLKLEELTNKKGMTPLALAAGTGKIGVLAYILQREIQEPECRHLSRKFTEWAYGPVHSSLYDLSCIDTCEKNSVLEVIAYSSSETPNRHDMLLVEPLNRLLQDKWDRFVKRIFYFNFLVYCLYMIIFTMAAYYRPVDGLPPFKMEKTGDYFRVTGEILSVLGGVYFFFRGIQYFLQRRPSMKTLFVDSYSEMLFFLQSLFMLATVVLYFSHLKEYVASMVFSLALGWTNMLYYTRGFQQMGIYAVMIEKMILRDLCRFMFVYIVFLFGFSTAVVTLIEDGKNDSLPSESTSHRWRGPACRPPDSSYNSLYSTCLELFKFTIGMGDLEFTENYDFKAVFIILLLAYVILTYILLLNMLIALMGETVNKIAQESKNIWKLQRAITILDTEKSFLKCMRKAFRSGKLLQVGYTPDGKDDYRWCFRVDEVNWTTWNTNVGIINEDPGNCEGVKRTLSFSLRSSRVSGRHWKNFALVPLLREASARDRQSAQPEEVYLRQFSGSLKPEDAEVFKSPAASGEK

| inhibition at 5 µM | SMILES |
| --- | --- |
| 26% | CC(CO)(CO)c1ccc(NC(=O)NCc2cc(C(F)(F)F)nn2-c2cccc(Cl)c2)cc1 [A155, 1-[[2-(3-Chlorophenyl)-5-(trifluoromethyl)-2H-pyrazol-3-yl]-methyl]-3-[4-[2-hydroxy-1-(hydroxymethyl)-1-methyl-ethyl]-phenyl]-urea] |

Same assay, conditions: human VR1 in CHO K1 cells; AG printed instead of a Ki

| (f) Ki (human being) [nM] Cap: agonist classification | SMILES |
| --- | --- |
| AG | CC(C)(C)c1cc(CNC(=O)Nc2ccc(CCO)c(F)c2)n(-c2cccc(Cl)c2)n1 [A140, 1-[[5-tert-Butyl-2-(3-chlorophenyl)-2H-pyrazol-3-yl]-methyl]-3-[3-fluoro-4-(2-hydroxy-ethyl)-phenyl]-urea] |
| AG | COCCOc1ccc(NC(=O)NCc2cc(C(C)(C)C)nn2-c2cccc(Cl)c2)cc1F [A17, 1-[[5-tert-Butyl-2-(3-chlorophenyl)-2H-pyrazol-3-yl]-methyl]-3-[3-fluoro-4-(2-methoxy-ethoxy)-phenyl]-urea] |

Same assay, conditions: read-out: (f) Ki (human being) [nM] Cap

| SMILES | Ki |
| --- | --- |
| CC(C(=O)NCc1cc(C(F)(F)F)nn1-c1cc(F)cc(F)c1)c1ccc(COCCO)c(F)c1 (stereo not drawn) [A126, N-[[2-(3,5-Difluoro-phenyl)-5-(trifluoromethyl)-2H-pyrazol-3-yl]-methyl]-2-[3-fluoro-4-(2-hydroxy-ethoxy-methyl)-phenyl]-propionamide] | 79 nM |
| CC(C)(C)c1cc(CNC(=O)Nc2ccc(COCCO)c(F)c2)n(-c2cccc(Cl)c2)n1 [A129, 1-[[5-tert-Butyl-2-(3-chlorophenyl)-2H-pyrazol-3-yl]-methyl]-3-[3-fluoro-4-(2-hydroxy-ethoxy-methyl)-phenyl]-urea] | 43 nM |
| CC(C(=O)NCc1cc(C(F)(F)F)nn1-c1cccc(Cl)c1)c1cc(F)c(CO)c(F)c1 (stereo not drawn) [A52, N-[[2-(3-Chlorophenyl)-5-(trifluoromethyl)-2H-pyrazol-3-yl]-methyl]-2-[3,5-difluoro-4-(hydroxymethyl)-phenyl]-propionamide] | 140 nM |
| COc1c(C)cccc1-n1nc(C(F)(F)F)cc1CNC(=O)Nc1ccc(CO)c(F)c1 [A94, 1-[3-Fluoro-4-(hydroxymethyl)-phenyl]-3-[[2-(2-methoxy-3-methyl-phenyl)-5-(trifluoromethyl)-2H-pyrazol-3-yl]-methyl]-urea] | 30 nM |
| O=C(NCc1cc(C(F)(F)F)nn1-c1cccc(C(F)F)c1)Nc1ccc(CO)c(F)c1 [A83, 1-[[2-[3-(Difluoro-methyl)-phenyl]-5-(trifluoromethyl)-2H-pyrazol-3-yl]-methyl]-3-[3-fluoro-4-(hydroxymethyl)-phenyl]-urea] | 12 nM |
| CC(C)(C)c1cc(CNC(=O)Nc2ccc(C(C)(CO)CO)c(F)c2)n(-c2cccc(Cl)c2)n1 [A156, 1-[[5-tert-Butyl-2-(3-chlorophenyl)-2H-pyrazol-3-yl]-methyl]-3-[3-fluoro-4-[2-hydroxy-1-(hydroxymethyl)-1-methyl-ethyl]-phenyl]-urea] | 84 nM |
| O=C(NCc1cc(C(F)(F)F)nn1-c1cccc(Cl)c1Cl)Nc1ccc(COCCO)c(F)c1 [A133, 1-[[2-(2,3-Dichloro-phenyl)-5-(trifluoromethyl)-2H-pyrazol-3-yl]-methyl]-3-[3-fluoro-4-(2-hydroxy-ethoxy-methyl)-phenyl]-urea] | 12 nM |
| COCCOCc1ccc(NC(=O)NCc2cc(C(F)(F)F)nn2-c2cccc(Cl)c2)cc1F [A128, 1-[[2-(3-Chlorophenyl)-5-(trifluoromethyl)-2H-pyrazol-3-yl]-methyl]-3-[3-fluoro-4-(2-methoxy-ethoxy-methyl)-phenyl]-urea] | 67 nM |
| COc1ccc(Cl)cc1-n1nc(C(F)(F)F)cc1CNC(=O)Nc1ccc(CO)c(F)c1 [A91, 1-[[2-(5-Chloro-2-methoxy-phenyl)-5-(trifluoromethyl)-2H-pyrazol-3-yl]-methyl]-3-[3-fluoro-4-(hydroxymethyl)-phenyl]-urea] | 51 nM |
| CC(C(=O)NCc1cc(C(F)(F)F)nn1-c1cccc(Cl)c1)c1ccc(C(O)CO)cc1 (stereo not drawn) [A146, N-[[2-(3-Chlorophenyl)-5-(trifluoromethyl)-2H-pyrazol-3-yl]-methyl]-2-[4-(1,2-dihydroxy-ethyl)-phenyl]-propionamide] | 13 nM |
| COc1c(F)cc(CC(=O)NCc2cc(C(C)(C)C)nn2-c2ccc(F)c(Cl)c2)cc1F [A6, N-[[5-tert-Butyl-2-(3-chloro-4-fluoro-phenyl)-2H-pyrazol-3-yl]-methyl]-2-(3,5-difluoro-4-methoxy-phenyl)-acetamide] | 14 nM |
| CC(C(=O)NCc1cc(C(F)(F)F)nn1-c1ccc(F)c(F)c1)c1ccc(CO)c(F)c1 (stereo not drawn) [A40, N-[[2-(3,4-Difluoro-phenyl)-5-(trifluoromethyl)-2H-pyrazol-3-yl]-methyl]-2-[3-fluoro-4-(hydroxymethyl)-phenyl]-propionamide] | 27 nM |
| COc1c(F)cc(NC(=O)NCc2cc(C(F)(F)F)nn2-c2cccc(Cl)c2)cc1F [A8, 1-[[2-(3-Chlorophenyl)-5-(trifluoromethyl)-2H-pyrazol-3-yl]-methyl]-3-(3,5-difluoro-4-methoxy-phenyl)-urea] | 55 nM |

Other lines, results leading:

| Ki | SMILES |
| --- | --- |
| 1 nM | CC(C)(C)c1cc(CNC(=O)Cc2ccc(CO)c(F)c2)n(-c2cccc(Cl)c2)n1 [A29, N-[[5-tert-Butyl-2-(3-chlorophenyl)-2H-pyrazol-3-yl]-methyl]-2-[3-fluoro-4-(hydroxymethyl)-phenyl]-acetamide] |
| 8 nM | CC(C(=O)NCc1cc(C(F)(F)F)nn1-c1cccc(Cl)c1)c1ccc(CCO)c(F)c1 (stereo not drawn) [A138, N-[[2-(3-Chlorophenyl)-5-(trifluoromethyl)-2H-pyrazol-3-yl]-methyl]-2-[3-fluoro-4-(2-hydroxy-ethyl)-phenyl]-propionamide] |
| 2 nM | Cc1cccc(-n2nc(C(C)(C)C)cc2CNC(=O)Nc2ccc(CO)c(F)c2)c1 [A56, 1-[[5-tert-Butyl-2-(m-tolyl)-2H-pyrazol-3-yl]-methyl]-3-[3-fluoro-4-(hydroxymethyl)-phenyl]-urea] |
| 0.2 nM | CC(C)c1cccc(-n2nc(C(F)(F)F)cc2CNC(=O)C(C)c2ccc(CO)c(F)c2)c1 (stereo not drawn) [A44, 2-[3-Fluoro-4-(hydroxymethyl)-phenyl]-N-[[2-(3-isopropyl-phenyl)-5-(trifluoromethyl)-2H-pyrazol-3-yl]-methyl]-propionamide] |
| 1 nM | CC(C(=O)NCc1cc(C(C)(C)C)nn1-c1ccc(F)cc1)c1ccc(CO)c(F)c1 (stereo not drawn) [A45, N-[[5-tert-Butyl-2-(4-fluorophenyl)-2H-pyrazol-3-yl]-methyl]-2-[3-fluoro-4-(hydroxymethyl)-phenyl]-propionamide] |
| 2 nM | CC(C)c1cccc(-n2nc(C(F)(F)F)cc2CNC(=O)Nc2ccc(CO)c(F)c2)c1 [A82, 1-[3-Fluoro-4-(hydroxymethyl)-phenyl]-3-[[2-(3-isopropyl-phenyl)-5-(trifluoromethyl)-2H-pyrazol-3-yl]-methyl]-urea] |
| 11 nM | CC(C(=O)NCc1cc(C(F)(F)F)nn1-c1cccc(F)c1)c1ccc(CO)c(F)c1 (stereo not drawn) [A38, 2-[3-Fluoro-4-(hydroxymethyl)-phenyl]-N-[[2-(3-fluorophenyl)-5-(trifluoromethyl)-2H-pyrazol-3-yl]-methyl]-propionamide] |
| 7 nM | O=C(NCc1cc(C(F)(F)F)nn1-c1cccc(Cl)c1)Nc1ccc(CO)c(F)c1 [A59, 1-[[2-(3-Chlorophenyl)-5-(trifluoromethyl)-2H-pyrazol-3-yl]-methyl]-3-[3-fluoro-4-(hydroxymethyl)-phenyl]-urea] |
